For 3 molecules, Activity and Ks results are on record in ChEMBL document CHEMBL1156249, “Highly effective binding of viologens by p-sulfonatocalixarenes for the treatment of viologen poisoning” (J Med Chem, 2009).

The nature of data set [1]: Binding affinity to viologen paraquat cation assessed as decrease in hydroxyl radical production at pH 7.2 by cyclic voltammetry.
The test system of data set [2] is Mus musculus. Description: Reduction of viologen poisoning in Kunming mouse assessed as protection from viologen-associated pathological changes in lung at 100 uL/20g body weight, iv administered immediately after viologen challenge for 13 days measured on day 14 by hematoxylin and eosin staining-based microscopy. The class given is functional, organism-based.
Data set [3] in a line: Binding affinity to viologen diquat cation assessed as compound-viologen complex formation by NMR spectroscopy.
Data set [4] in a line: Binding affinity to viologen paraquat cation assessed as compound-viologen complex formation by NMR spectroscopy.
The subject of data set [5] is Mus musculus. Description: Reduction of viologen poisoning in Kunming mouse assessed as change in body weight at 100 uL/20g body weight, iv administered 2 hrs after viologen challenge for 13 days measured on day 14 (reference value: 14 g). The class given is functional.
Data set [6] relates to Mus musculus. Description: Reduction of viologen poisoning in Kunming mouse assessed as protection from viologen-associated pathological changes in liver at 100 uL/20g body weight, iv for 13 days measured on day 14 by hematoxylin and eosin staining-based microscopy. The format is functional, organism-based.
The nature of data set [7]: Binding affinity to viologen diquat cation assessed as decrease in hydroxyl radical production at pH 7.2 by cyclic voltammetry.
Data set [8] has as its system Mus musculus. The data set can be described thus: Reduction of viologen poisoning in Kunming mouse assessed as viologen-associated mortality rate at 100 uL/20g body weight, iv administered immediately after viologen challenge for 13 days measured on day 14. The format is functional. Set-up: scale not given: the % may be the effect or the level left.
For data set [9], the system named is Mus musculus. Description: Reduction of viologen poisoning in Kunming mouse assessed as viologen-associated mortality rate at 100 uL/20g body weight, iv for 13 days measured on day 14. The format is functional. Set-up: scale not given: the % may be the effect or the level left.
The nature of data set [10]: Binding affinity to viologen diquat cation assessed as compound-viologen complex stability at pH 7.2 by isothermal calorimetry. On the technique in general: In ITC the heat of successive injections is recorded.
Data set [11] relates to Mus musculus. Description: Reduction of viologen poisoning in Kunming mouse assessed as protection from viologen-associated pathological changes in lung at 100 uL/20g body weight, iv administered 30 mins after viologen challenge for 13 days measured on day 14 by hematoxylin and eosin staining-based microscopy. The class given is functional, organism-based.
Data set [12] relates to Mus musculus. The data set can be described thus: Reduction of viologen poisoning in Kunming mouse assessed as change in body weight at 100 uL/20g body weight, iv administered immediately after viologen challenge for 13 days measured on day 14 (reference value: 14 g). The class given is functional.
Data set [13] relates to Mus musculus. Description: Reduction of viologen poisoning in Kunming mouse assessed as protection from viologen-associated pathological changes in lung at 100 uL/20g body weight, iv administered 2 hrs after viologen challenge for 13 days measured on day 14 by hematoxylin and eosin staining-based microscopy. The format is functional, organism-based.
For data set [14], the system named is Mus musculus. Description: Reduction of viologen poisoning in Kunming mouse assessed as viologen-associated mortality rate at 100 uL/20g body weight, iv administered 1 hr after viologen challenge for 13 days measured on day 14. The format is functional. Set-up: scale not given: the % may be the effect or the level left.
Data set [15] is described as follows: Binding affinity to viologen paraquat cation at pH 7.2 by microcalorimetric titration method.
A short description of data set [16]: Binding affinity to viologen diquat cation at pH 1.5 by microcalorimetric titration method.
A short description of data set [17]: Binding affinity to viologen paraquat cation assessed as compound-viologen complex stability at pH 2 by isothermal calorimetry.
Data set [18] relates to Mus musculus. Description: Reduction of viologen poisoning in Kunming mouse assessed as change in body weight at 100 uL/20g body weight, iv administered 30 mins after viologen challenge for 13 days measured on day 14 (reference value: 14 g). The class given is functional.
For data set [19], the system named is Mus musculus. The data set can be described thus: Reduction of viologen poisoning in Kunming mouse assessed as protection from viologen-associated pathological changes in lung at 100 uL/20g body weight, iv for 13 days measured on day 14 by hematoxylin and eosin staining-based microscopy. The class given is functional, organism-based.
In data set [20] the test system is Mus musculus. Description: Reduction of viologen poisoning in Kunming mouse assessed as change in body weight at 100 uL/20g body weight, iv administered 1 hr after viologen challenge for 13 days measured on day 14 (reference value: 14 g). The class given is functional.
Data set [21] is described as follows: Binding affinity to viologen paraquat cation at pH 1.5 by microcalorimetric titration method.
Data set [22] relates to Mus musculus. Description: Reduction of viologen poisoning in Kunming mouse assessed as change in body weight at 100 uL/20g body weight, iv for 13 days measured on day 14 (reference value: 14 g). The format is functional.
Data set [23] can be described thus: Binding affinity to viologen paraquat cation assessed as compound-viologen complex stability at pH 7.2 by isothermal calorimetry.
Data set [24] in a line: Binding affinity to viologen diquat cation at pH 7.2 by microcalorimetric titration method.
Data set [25] relates to Mus musculus. The data set can be described thus: Reduction of viologen poisoning in Kunming mouse assessed as protection from viologen-associated pathological changes in lung at 100 uL/20g body weight, iv administered 1 hr after viologen challenge for 13 days measured on day 14 by hematoxylin and eosin staining-based microscopy. The format is functional, organism-based.

The test system of data set [26] is Mus musculus. The data set can be described thus: Toxicity in Kunming mouse assessed as change in body weight at 100 uL/20g body weight, iv for 13 days measured on day 14 (reference value: 32.8 +/- 3.8 g). As to conditions: in vivo, 312 h. The format is organism-based.
The subject of data set [27] is Mus musculus. The data set can be described thus: Reduction of viologen poisoning in Kunming mouse assessed as viologen-associated mortality rate at 100 uL/20g body weight, iv administered 30 mins after viologen challenge for 13 days measured on day 14. The class given is functional. Set-up: scale not given: the % may be the effect or the level left.
The test system of data set [28] is Mus musculus. The data set can be described thus: Reduction of viologen poisoning in Kunming mouse assessed as viologen-associated mortality rate at 100 uL/20g body weight, iv administered 2 hrs after viologen challenge for 13 days measured on day 14. The format is functional. Set-up: scale not given: the % may be the effect or the level left.
Data set [29] is described as follows: Binding affinity to viologen diquat cation assessed as compound-viologen complex stability at pH 2 by isothermal calorimetry.

Activity calls are given as the source filed them. The rule behind the calls is not given here.

In the case of `O=S(=O)(O)c1cc2c(O)c(c1)Cc1cc(S(=O)(=O)O)cc(c1O)Cc1cc(S(=O)(=O)O)cc(c1O)Cc1cc(S(=O)(=O)O)cc(c1O)Cc1cc(S(=O)(=O)O)cc(c1O)C2`, the outcome in data set [1], in data set [2], in data set [3], in [4], in data set [6] and in data set [7] was Active. For the same molecule, the result in data set [11], in data set [13], in data set [15], in data set [16], in [19] and in [21] was Active. Further, the outcome in data set [24] and in [25] was Active. In addition, the Activity in data set [5] worked out at 31 g; in data set [8] it was 40%; in data set [9], 20%; in data set [12], 31 g; in [14] it was 0%; in data set [18] it was 31 g. The Activity in [20] was 31 g; in data set [22], 30.8 g; in data set [26] it was 33.4 g; in data set [27], 40%; in data set [28], 40%. In addition, the Ks in data set [10] is 3.23 10^6/M; in [17], 5.5 10^3/M; in [23] it was 2.51 10^5/M; in [29] it was 1.12 10^5/M.

Take `O=S(=O)(O)c1cc2c(O)c(c1)Sc1cc(S(=O)(=O)O)cc(c1O)Sc1cc(S(=O)(=O)O)cc(c1O)Sc1cc(S(=O)(=O)O)cc(c1O)S2`: the outcome in [1] and in [7] was Active. Moreover, the Ks in data set [10] is 4.57 10^4/M; in data set [17], 2.22 10^3/M; in data set [23], 8.68 10^3/M; in data set [29], 2.39 10^4/M.

For the molecule `O=S(=O)(O)c1cc2c(O)c(c1)Cc1cc(S(=O)(=O)O)cc(c1O)Cc1cc(S(=O)(=O)O)cc(c1O)Cc1cc(S(=O)(=O)O)cc(c1O)C2`, the outcome in data set [1], in [3], in data set [4], in data set [7], in data set [15] and in data set [16] was Active. The result in data set [21] and in [24] was Active. The Ks in [10] was 7.95 10^5/M; in data set [17] it was 3.09 10^4/M; in data set [23] it was 9.33 10^4/M; in data set [29] it was 5.4 10^5/M.
